Assay results published in the kinase profiling compilation of Christmann-Franck et al. (2016).

Key:
Experiment in all cases: radiometric filter-binding kinase assay, Kinase HotSpot
Conditions in all cases: compound 0.5 µM; ATP 10 µM
[1] = molecular target: ACVRL1 (human) (UniProt P37023)
[2] = molecular target: ADRBK1 (human) (UniProt P25098)
[3] = molecular target: AKT2 (human) (UniProt P31751)
[4] = molecular target: AXL (human) (UniProt P30530)
[5] = molecular target: BTK (human) (UniProt Q06187)
[6] = molecular target: CAMK1D (human) (UniProt Q8IU85)
[7] = molecular target: CAMK2G (human) (UniProt Q13555)
[8] = molecular target: CDK2 CCNE1 (human) (UniProt P24941+P24864)
[9] = molecular target: CDK7 CCNH MNAT1 (human) (UniProt P50613+P51948+P51946)
[10] = molecular target: CDK9 CCNK (human) (UniProt O75909+P50750)
[11] = molecular target: CHUK (human) (UniProt O15111)
[12] = molecular target: CSF1R (human) (UniProt P07333)
[13] = molecular target: DAPK2 (human) (UniProt Q9UIK4)
[14] = molecular target: DSTYK (human) (UniProt Q6XUX3)
[15] = molecular target: DYRK1A (human) (UniProt Q13627)
[16] = molecular target: DYRK2 (human) (UniProt Q92630)
[17] = molecular target: ERBB4 (human) (UniProt Q15303)
[18] = molecular target: FES (human) (UniProt P07332)
FES (human), sequence (P07332 whole entry, looked up): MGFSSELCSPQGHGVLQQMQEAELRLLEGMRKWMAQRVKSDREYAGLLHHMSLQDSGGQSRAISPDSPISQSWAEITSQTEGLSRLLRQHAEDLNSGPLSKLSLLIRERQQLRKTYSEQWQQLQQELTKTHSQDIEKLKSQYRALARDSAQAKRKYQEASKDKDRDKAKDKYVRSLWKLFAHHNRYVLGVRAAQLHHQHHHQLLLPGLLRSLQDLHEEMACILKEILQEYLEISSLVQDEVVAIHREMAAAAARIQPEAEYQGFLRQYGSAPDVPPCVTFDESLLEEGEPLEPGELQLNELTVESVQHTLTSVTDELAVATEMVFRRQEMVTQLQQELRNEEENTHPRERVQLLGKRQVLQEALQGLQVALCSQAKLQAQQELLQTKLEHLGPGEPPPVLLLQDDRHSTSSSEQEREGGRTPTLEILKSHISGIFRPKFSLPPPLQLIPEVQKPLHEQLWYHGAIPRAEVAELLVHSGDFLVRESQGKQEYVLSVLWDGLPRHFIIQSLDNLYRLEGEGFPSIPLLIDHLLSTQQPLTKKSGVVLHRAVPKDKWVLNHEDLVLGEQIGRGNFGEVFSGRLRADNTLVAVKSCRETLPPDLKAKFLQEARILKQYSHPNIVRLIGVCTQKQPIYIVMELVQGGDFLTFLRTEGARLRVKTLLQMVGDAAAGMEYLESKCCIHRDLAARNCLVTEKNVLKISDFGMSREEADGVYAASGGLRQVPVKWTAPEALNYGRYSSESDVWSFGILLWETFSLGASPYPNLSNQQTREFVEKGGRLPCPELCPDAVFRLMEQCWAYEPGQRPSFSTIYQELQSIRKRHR

[19] = molecular target: FGFR4 (human) (UniProt P22455)
[20] = molecular target: INSRR (human) (UniProt P14616)
[21] = molecular target: ITK (human) (UniProt Q08881)
[22] = molecular target: JAK2 JH1 JH2 (human) (UniProt O60674)
JAK2 JH1 JH2 (human), sequence (O60674 whole entry, looked up): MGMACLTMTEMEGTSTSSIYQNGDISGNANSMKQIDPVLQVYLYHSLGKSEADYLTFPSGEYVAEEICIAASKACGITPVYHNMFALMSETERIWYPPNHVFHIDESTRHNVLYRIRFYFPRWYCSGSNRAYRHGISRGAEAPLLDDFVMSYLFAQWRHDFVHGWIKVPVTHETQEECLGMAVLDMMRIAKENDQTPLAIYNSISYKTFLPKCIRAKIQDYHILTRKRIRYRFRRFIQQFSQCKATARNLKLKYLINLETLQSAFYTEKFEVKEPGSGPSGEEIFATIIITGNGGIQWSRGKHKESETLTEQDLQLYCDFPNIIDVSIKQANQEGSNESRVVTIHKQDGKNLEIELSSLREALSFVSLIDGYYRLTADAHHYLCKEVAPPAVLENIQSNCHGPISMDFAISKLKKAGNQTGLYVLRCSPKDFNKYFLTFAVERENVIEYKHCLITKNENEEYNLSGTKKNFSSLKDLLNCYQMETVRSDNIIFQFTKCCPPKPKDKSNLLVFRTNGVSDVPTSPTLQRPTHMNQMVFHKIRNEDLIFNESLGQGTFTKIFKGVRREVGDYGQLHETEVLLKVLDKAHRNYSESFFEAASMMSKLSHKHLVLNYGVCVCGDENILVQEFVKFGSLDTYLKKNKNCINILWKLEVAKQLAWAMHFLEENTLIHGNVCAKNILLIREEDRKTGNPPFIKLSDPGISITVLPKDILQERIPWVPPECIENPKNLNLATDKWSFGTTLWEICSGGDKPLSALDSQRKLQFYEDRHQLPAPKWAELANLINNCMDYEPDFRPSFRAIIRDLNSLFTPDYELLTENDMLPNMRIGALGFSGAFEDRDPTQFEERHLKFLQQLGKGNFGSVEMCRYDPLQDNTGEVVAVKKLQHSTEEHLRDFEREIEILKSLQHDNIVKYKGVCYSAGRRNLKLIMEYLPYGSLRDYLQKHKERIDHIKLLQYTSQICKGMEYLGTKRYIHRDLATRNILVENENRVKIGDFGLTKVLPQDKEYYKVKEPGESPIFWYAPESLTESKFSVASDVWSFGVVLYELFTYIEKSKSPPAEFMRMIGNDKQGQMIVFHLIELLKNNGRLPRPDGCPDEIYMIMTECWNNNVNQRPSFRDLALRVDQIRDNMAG

[23] = molecular target: LTK (human) (UniProt P29376)
[24] = molecular target: MAPK11 (human) (UniProt Q15759)
[25] = molecular target: MAPK14 (human) (UniProt Q16539)
[26] = molecular target: MINK1 (human) (UniProt Q8N4C8)
[27] = molecular target: MST4 (human) (UniProt Q9P289)
MST4 (human), sequence (Q9P289 whole entry, looked up): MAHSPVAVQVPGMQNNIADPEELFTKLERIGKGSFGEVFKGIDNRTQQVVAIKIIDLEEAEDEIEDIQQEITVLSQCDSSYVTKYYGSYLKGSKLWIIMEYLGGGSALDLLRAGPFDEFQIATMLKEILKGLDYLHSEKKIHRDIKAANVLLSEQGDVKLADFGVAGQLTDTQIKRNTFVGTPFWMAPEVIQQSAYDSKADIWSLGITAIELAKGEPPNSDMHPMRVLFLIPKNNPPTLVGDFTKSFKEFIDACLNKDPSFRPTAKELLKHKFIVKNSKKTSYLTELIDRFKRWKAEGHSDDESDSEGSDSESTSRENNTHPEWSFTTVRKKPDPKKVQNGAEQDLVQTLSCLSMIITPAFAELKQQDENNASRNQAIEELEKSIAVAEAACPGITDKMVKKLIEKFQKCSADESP

[28] = molecular target: MYLK (human) (UniProt Q15746)
[29] = molecular target: NEK4 (human) (UniProt P51957)
[30] = molecular target: NEK9 (human) (UniProt Q8TD19)
[31] = molecular target: PAK7 (human) (UniProt Q9P286)
[32] = molecular target: PIM3 (human) (UniProt Q86V86)
[33] = molecular target: PTK6 (human) (UniProt Q13882)
PTK6 (human), sequence (Q13882 whole entry, looked up): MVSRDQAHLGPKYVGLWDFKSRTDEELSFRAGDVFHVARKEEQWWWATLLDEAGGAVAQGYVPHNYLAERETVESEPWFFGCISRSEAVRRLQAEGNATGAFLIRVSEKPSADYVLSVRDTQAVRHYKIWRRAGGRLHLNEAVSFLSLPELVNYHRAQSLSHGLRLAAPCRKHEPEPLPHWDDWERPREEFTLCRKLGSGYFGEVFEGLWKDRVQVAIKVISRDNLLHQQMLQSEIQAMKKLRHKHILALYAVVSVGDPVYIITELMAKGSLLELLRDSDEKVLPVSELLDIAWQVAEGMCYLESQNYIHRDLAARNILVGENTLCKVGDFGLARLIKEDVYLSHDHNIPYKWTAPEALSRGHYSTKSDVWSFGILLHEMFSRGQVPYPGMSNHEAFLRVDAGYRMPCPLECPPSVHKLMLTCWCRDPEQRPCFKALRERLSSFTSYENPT

[34] = molecular target: RAF1 (human) (UniProt P04049)
[35] = molecular target: SRPK3 (human) (UniProt Q9UPE1)
[36] = molecular target: STK10 (human) (UniProt O94804)
[37] = molecular target: STK3 (human) (UniProt Q13188)
[38] = molecular target: STK4 (human) (UniProt Q13043)
STK4 (human), sequence (Q13043 whole entry, looked up): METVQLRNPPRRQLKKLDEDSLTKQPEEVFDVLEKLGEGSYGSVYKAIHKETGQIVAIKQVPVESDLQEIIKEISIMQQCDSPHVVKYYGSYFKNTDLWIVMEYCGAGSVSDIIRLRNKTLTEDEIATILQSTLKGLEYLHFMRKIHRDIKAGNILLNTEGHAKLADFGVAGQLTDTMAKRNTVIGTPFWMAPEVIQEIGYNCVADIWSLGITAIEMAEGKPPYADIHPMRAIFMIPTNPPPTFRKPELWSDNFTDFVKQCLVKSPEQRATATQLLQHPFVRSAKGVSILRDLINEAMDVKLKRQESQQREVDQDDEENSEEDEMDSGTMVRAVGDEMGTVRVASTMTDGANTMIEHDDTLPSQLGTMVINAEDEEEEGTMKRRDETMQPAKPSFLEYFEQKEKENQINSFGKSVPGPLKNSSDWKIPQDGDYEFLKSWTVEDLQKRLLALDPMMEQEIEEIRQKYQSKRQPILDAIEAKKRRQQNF

[39] = molecular target: SYK (human) (UniProt P43405)
[40] = molecular target: TAOK3 (human) (UniProt Q9H2K8)
[41] = molecular target: TEK (human) (UniProt Q02763)
[42] = molecular target: ULK2 (human) (UniProt Q8IYT8)

ADRBK1 (human), sequence (P25098 whole entry, looked up): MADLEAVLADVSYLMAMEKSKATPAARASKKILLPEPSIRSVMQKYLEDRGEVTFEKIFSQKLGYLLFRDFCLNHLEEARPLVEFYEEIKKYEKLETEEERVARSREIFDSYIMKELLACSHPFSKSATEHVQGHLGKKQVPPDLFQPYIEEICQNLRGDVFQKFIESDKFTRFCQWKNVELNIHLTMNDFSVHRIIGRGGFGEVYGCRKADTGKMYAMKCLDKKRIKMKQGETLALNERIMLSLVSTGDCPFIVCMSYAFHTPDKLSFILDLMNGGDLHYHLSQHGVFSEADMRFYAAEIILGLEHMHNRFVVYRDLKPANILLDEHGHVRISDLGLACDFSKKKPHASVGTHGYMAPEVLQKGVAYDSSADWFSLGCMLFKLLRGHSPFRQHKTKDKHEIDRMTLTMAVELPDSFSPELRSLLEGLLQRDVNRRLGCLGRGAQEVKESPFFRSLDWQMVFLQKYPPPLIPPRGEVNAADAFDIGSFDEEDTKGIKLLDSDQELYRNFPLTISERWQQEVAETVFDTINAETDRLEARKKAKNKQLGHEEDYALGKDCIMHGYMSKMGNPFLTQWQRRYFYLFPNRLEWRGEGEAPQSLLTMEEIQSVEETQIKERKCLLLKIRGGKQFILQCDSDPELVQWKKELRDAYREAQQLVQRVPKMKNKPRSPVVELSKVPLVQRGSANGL
AKT2 (human), sequence (P31751 whole entry, looked up): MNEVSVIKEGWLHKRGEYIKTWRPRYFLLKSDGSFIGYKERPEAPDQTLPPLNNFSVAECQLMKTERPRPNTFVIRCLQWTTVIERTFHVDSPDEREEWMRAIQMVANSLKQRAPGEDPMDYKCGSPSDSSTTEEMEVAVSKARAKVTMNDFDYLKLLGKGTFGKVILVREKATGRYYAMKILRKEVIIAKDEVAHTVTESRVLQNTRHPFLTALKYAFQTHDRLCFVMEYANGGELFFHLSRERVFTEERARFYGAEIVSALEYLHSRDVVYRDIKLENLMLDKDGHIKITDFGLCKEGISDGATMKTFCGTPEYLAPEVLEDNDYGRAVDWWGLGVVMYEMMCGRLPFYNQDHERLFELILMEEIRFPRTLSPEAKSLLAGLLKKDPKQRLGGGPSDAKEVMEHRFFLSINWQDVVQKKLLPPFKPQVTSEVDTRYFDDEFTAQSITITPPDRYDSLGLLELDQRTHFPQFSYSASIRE

Nc1nc(Nc2ccc(S(N)(=O)=O)cc2)nn1C(=S)Nc1c(F)cccc1F
residual activity [1]: 15.1%
residual activity [2]: 97.8%
residual activity [3]: 103%
residual activity [4]: 34.2%
residual activity [5]: 84.1%
residual activity [6]: 93.4%
residual activity [7]: 15.6%
residual activity [8]: 8.92%
residual activity [9]: 43.6%
residual activity [10]: 7.46%
residual activity [11]: 54.4%
residual activity [12]: 10.6%
residual activity [13]: 83%
residual activity [14]: 17.8%
residual activity [15]: 15.3%
residual activity [16]: 60.4%
residual activity [17]: 98%
residual activity [18]: 10.2%
residual activity [19]: 32.2%
residual activity [20]: 86.5%
residual activity [21]: 61%
residual activity [22]: 3.16%
residual activity [23]: 27.6%
residual activity [24]: 78.5%
residual activity [25]: 95.4%
residual activity [26]: 3.06%
residual activity [27]: 4.54%
residual activity [28]: 78.8%
residual activity [29]: 60.5%
residual activity [30]: 39.1%
residual activity [31]: 43.8%
residual activity [32]: 89.1%
residual activity [33]: 34.8%
residual activity [34]: 110%
residual activity [35]: 48.7%
residual activity [36]: 3.96%
residual activity [37]: 1.33%
residual activity [38]: 2.16%
residual activity [39]: 15.5%
residual activity [40]: 10%
residual activity [41]: 5.06%
residual activity [42]: 4.73%

NC(=O)c1ccc(N(C(N)=O)c2c(F)cccc2F)nc1-c1ccc(F)cc1F
residual activity [1]: 99.3%
residual activity [2]: 99%
residual activity [3]: 118%
residual activity [4]: 101%
residual activity [5]: 98.2%
residual activity [6]: 114%
residual activity [7]: 105%
residual activity [8]: 93.1%
residual activity [9]: 102%
residual activity [10]: 106%
residual activity [11]: 100%
residual activity [12]: 109%
residual activity [13]: 86.8%
residual activity [14]: 101%
residual activity [15]: 98.7%
residual activity [16]: 102%
residual activity [17]: 98.1%
residual activity [18]: 99%
residual activity [19]: 96.2%
residual activity [20]: 102%
residual activity [21]: 105%
residual activity [22]: 107%
residual activity [23]: 95%
residual activity [24]: 22.3%
residual activity [25]: 5.23%
residual activity [26]: 100%
residual activity [27]: 117%
residual activity [28]: 101%
residual activity [29]: 104%
residual activity [30]: 104%
residual activity [31]: 96.4%
residual activity [32]: 97.7%
residual activity [33]: 98.7%
residual activity [34]: 97.5%
residual activity [35]: 105%
residual activity [36]: 93.8%
residual activity [37]: 94.1%
residual activity [38]: 101%
residual activity [39]: 110%
residual activity [40]: 95.7%
residual activity [41]: 96.7%
residual activity [42]: 101%

O=c1cc(-c2cccc3c2Sc2ccccc2S3)oc(N2CCOCC2)c1
residual activity [1]: 99.9%
residual activity [2]: 79%
residual activity [3]: 96%
residual activity [4]: 106%
residual activity [5]: 104%
residual activity [6]: 106%
residual activity [7]: 106%
residual activity [8]: 84.6%
residual activity [9]: 96.5%
residual activity [10]: 109%
residual activity [11]: 87.4%
residual activity [12]: 91.9%
residual activity [13]: 98.8%
residual activity [14]: 93.4%
residual activity [15]: 95%
residual activity [16]: 104%
residual activity [17]: 105%
residual activity [18]: 104%
residual activity [19]: 100%
residual activity [20]: 98.7%
residual activity [21]: 96.6%
residual activity [22]: 105%
residual activity [23]: 94.1%
residual activity [24]: 102%
residual activity [25]: 99.3%
residual activity [26]: 100%
residual activity [27]: 90.4%
residual activity [28]: 102%
residual activity [29]: 90%
residual activity [30]: 110%
residual activity [31]: 98.8%
residual activity [32]: 52.3%
residual activity [33]: 90.6%
residual activity [34]: 94.7%
residual activity [35]: 99.6%
residual activity [36]: 97.1%
residual activity [37]: 101%
residual activity [38]: 95%
residual activity [39]: 106%
residual activity [40]: 115%
residual activity [41]: 100%
residual activity [42]: 123%

Cc1ccc(NC(=O)c2ccc(CN3CCN(C)CC3)cc2)cc1Nc1nc(-c2cccnc2)cs1
residual activity [1]: 103%
residual activity [2]: 121%
residual activity [3]: 103%
residual activity [4]: 86.5%
residual activity [5]: 99.6%
residual activity [6]: 110%
residual activity [7]: 98.6%
residual activity [8]: 95%
residual activity [9]: 110%
residual activity [10]: 109%
residual activity [11]: 96.2%
residual activity [12]: 8.38%
residual activity [13]: 104%
residual activity [14]: 92.4%
residual activity [15]: 106%
residual activity [16]: 109%
residual activity [17]: 93.5%
residual activity [18]: 105%
residual activity [19]: 89.8%
residual activity [20]: 102%
residual activity [21]: 98.7%
residual activity [22]: 96.3%
residual activity [23]: 102%
residual activity [24]: 102%
residual activity [25]: 98.1%
residual activity [26]: 86.7%
residual activity [27]: 97%
residual activity [28]: 96.2%
residual activity [29]: 92.4%
residual activity [30]: 98.6%
residual activity [31]: 92%
residual activity [32]: 73.7%
residual activity [33]: 79.2%
residual activity [34]: 77.5%
residual activity [35]: 102%
residual activity [36]: 93.8%
residual activity [37]: 94.4%
residual activity [38]: 101%
residual activity [39]: 101%
residual activity [40]: 95.4%
residual activity [41]: 97.2%
residual activity [42]: 103%
